Laboratory results taken from the NIST ThermoML archive (doi:10.1016/j.jct.2008.01.002).
Numbers after ± are expanded uncertainties.

Legend:
[1] = refractive index (Na D-line) (dimensionless); details: 298.15 K; 101.33 kPa; Liquid; Standard Abbe refractometry
[2] = Liquid; for mass density: 298.15 K, 101.33 kPa; for Normal boiling temperature: Closed cell (Static) method

SMILES | refractive index [1] | mass density [2] [kg/m3] | Normal boiling temperature [2] [°C] | mass density ([2]; Vibrating tube method) [kg/m3]
CC(C)OC(C)C [diisopropyl ether] | 1.3652 ± 0.0005 | 718.32 ± 0.96 | 68.2 ± 0.2 | –
CCCOCCC [dipropyl ether] | 1.3784 ± 0.0005 | 741.81 ± 0.56 | 90.01 ± 0.2 | –
CCCO [propan-1-ol] | 1.3836 ± 0.0005 | 799.62 ± 0.79 | 96.60 ± 0.2 | –
CC(C)O [propan-2-ol] | 1.3754 ± 0.0005 | – | 82.10 ± 0.2 | 782.69 ± 0.12
O [water] | 1.3332 ± 0.0005 | – | 100.00 ± 0.2 | –
